Patent US10787430B2, “Hemoglobin modifier compounds and uses thereof” (FronThera U.S. Pharmaceuticals LLC, priority 2016, dated 2020)
Read-outs that look alike come from different tables or passages of the source.

What was measured:
CYP2C8 = target: T1, CYP2C8 (Homo sapiens, UniProt P10632); test: CYP inhibition evaluation in human liver microsomes; type: in vitro ADME
T1 construct: from tissue; host or cells: human liver microsomes
T1 sequence (P10632 1-490): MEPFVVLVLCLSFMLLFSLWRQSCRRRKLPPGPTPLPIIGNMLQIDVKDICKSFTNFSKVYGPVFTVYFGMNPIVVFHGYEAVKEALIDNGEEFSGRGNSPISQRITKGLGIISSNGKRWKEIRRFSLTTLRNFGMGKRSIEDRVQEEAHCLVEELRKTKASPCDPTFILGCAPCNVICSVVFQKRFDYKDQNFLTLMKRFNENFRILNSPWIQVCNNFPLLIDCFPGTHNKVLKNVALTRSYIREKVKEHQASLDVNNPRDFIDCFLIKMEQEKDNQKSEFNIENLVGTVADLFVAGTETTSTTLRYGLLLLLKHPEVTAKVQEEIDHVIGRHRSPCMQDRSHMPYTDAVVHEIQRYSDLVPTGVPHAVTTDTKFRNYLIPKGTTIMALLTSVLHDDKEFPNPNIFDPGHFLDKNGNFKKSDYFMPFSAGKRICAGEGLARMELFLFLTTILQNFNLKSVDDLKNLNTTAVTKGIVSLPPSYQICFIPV
From the text: (§1) Example A5: CYP Inhibition Evaluation in Human Liver Microsomes

CYP2C9 = target: T2, CYP2C9 (Homo sapiens, UniProt P11712); test: as above; type: in vitro ADME
T2 construct: from tissue; host or cells: human liver microsomes
T2 sequence (P11712 whole entry): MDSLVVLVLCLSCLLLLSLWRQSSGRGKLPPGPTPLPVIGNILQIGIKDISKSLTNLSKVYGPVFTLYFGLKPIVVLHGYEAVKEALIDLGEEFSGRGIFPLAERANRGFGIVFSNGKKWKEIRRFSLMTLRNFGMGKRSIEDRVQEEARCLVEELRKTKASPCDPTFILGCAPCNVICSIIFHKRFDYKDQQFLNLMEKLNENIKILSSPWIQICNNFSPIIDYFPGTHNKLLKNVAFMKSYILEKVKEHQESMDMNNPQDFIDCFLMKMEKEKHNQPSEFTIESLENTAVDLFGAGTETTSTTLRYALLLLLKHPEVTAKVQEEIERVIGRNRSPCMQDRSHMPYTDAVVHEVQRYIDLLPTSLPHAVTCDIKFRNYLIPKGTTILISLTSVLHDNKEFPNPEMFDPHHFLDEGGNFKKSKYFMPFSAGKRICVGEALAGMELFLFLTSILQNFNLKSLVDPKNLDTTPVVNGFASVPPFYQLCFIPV
From the text: as §1

CYP2C19 = target: T3, CYP2C19 (Homo sapiens, UniProt P33261); test: as above; type: in vitro ADME
T3 construct: from tissue; host or cells: human liver microsomes
T3 sequence (P33261 whole entry): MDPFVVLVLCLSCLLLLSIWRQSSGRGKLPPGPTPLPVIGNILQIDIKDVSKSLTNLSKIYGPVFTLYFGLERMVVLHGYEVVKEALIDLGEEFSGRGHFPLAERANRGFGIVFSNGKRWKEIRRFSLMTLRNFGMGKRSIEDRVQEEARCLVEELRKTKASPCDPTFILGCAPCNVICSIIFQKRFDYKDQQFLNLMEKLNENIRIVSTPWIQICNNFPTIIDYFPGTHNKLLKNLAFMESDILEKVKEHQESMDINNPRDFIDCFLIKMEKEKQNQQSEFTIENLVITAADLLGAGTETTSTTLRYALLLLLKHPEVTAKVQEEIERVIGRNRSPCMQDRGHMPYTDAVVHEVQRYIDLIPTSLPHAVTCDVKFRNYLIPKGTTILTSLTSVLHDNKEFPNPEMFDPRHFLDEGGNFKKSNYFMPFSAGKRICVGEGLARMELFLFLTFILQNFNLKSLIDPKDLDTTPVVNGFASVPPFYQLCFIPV
From the text: as §1

[1] = target: T4, hemoglobin (20% hct blood) (Homo sapiens, UniProt P68871+P69905); test: Dose-dependent whole blood OEC studies; type: cell-based; conditions: 37° C., 1 hr
T4 construct: Normal whole blood was collected from adult healthy donors; from tissue; host or cells: normal human whole blood (red blood cells), adult healthy donors
T4 sequence (P69905 2-142 limits assumed): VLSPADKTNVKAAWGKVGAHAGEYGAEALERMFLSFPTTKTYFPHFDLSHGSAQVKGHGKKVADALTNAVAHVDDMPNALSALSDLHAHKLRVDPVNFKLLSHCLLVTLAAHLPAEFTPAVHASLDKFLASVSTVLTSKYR
T4 sequence (P68871 2-147 limits assumed): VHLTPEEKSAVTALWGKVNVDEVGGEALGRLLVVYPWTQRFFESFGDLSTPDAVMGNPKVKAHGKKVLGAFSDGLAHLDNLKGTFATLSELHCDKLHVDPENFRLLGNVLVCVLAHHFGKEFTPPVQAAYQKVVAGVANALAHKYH
In short: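 Human whole blood at 20% hct shaken with 0.2, 0.5 or 1 mM compound at 37° C. for 1 hr; DMSO (1%) vehicle control. Oxygen equilibrium curves gave pO2 and Hb oxygen saturation (sO2), reported as delta p50%.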

[2] = Pharmacokinetic study in rats (plasma and red blood cell); type: in vivo; conditions: male, Sprague-Dawley, rat, oral, 7.2 mg/kg
Experimental: Rats (Sprague-Dawley, male, 220-280 g) were dosed with GBT-440 (HCl salt) and one of three compounds corresponding to Example 27, 29, and 38. The rats received oral (7.2 mpk) doses of the compound. Rats were fasted overnight before the experiments and provided with food four hours after dosing. The oral dosing formulations was prepared as follows: approximately 10 mg of compound was weighed precisely to an appropriate size of container, to which was added 2 mL of vehicle 0.5% methylcellulose in water and 8 μL 0.5% sodium dodecyl sulfate. The mixture was then transferred into a glass vial, and volume adjusted to appropriate volume with 0.5% methylcellulose to obtain a final concentration of 0.72 mg·mL^−1, and then vortexed and sonicated briefly.
Whole blood sample collection: Blood samples ([…]) were collected at pre-dose, 15, 30 min, 1, 2, 4, 8, 12 and 24 h via jugular vein into tubes and anticoagulated with 3.2% TSC (trisodium citrate). The proportion of anticoagulant and blood was 1:9 (v/v). The sampling time was recorded accordingly. The tubes were gently inverted several times to ensure mixing. Then 10 μL doses of whole blood sample was transferred to a new EP tube and duplicated in wet ice.
Plasma sample collection: The remaining whole blood was processed by centrifugation at 5,500 rpm for 10 min. The supernate was collected. All these whole blood and plasma samples were kept below −20° C. for 1 h prior to analysis.
(§2) Plasma sample preparation: An aliquot of 20 μL of sample was transferred to sample treatment tube (1.5 mL EP tube), and then 100 μL ACN (0.5% FA) containing Verapamil, 5 ng·mL^−1 and Glibenclamide, 50 ng·mL^−1 for protein precipitation was added. The mixture was vortexed for 30 min, and then centrifuged at 13000 rpm for 5 min at room temperature. After that, 70 μL of supernatant was transferred to a 96-Well Plate, to which 70 μL of water added and then vortexed for 10 min at room temperature. An aliquot of 10 μL of this mixture was analyzied using LC-MS/MS.
as §2, with “Whole blood” for “Plasma”, “10” for “20”, “500” for “100”, “water was” for “water”, “analyzed” for “analyzied”
Plasma and red blood cell concentration-time data were processed by linear regression analysis. All pharmacokinetic parameters were calculated using non-compartment model of Pharsight Phoenix 6.3.
Red blood cell concentrations were calculated according to the method below: Mass balance equation: Cb·VB=Cp·Vp+CBC·VBC Where, Cb=Concentration of whole blood; VB=Volume of whole blood; Cp=Concentration of plasma; Vp=Volume of plasma; CBC=Concentration of blood cell; VBC=Volume of blood cell. VBC=H·VB, where H is the hematocrit number. Vp=(1−H)·VB

IC50 (CYP2C8): 25.2 µM | IC50 (CYP2C9): 10.6 µM | IC50 (CYP2C19): 8.61 µM | delta p50 0.2 mM ([1]; 0.2 mM compound): −15.20% | delta p50 0.5 mM ([1]; 0.5 mM compound): −46.80% | AUC(0-t) ([2]; red blood cells, red blood cell (calculated by mass balance from whole blood and plasma), read-out: AUC0-24 h RBC): 1730 µg·h/mL | Cmax ([2]; red blood cells, red blood cell (calculated by mass balance from whole blood and plasma), read-out: Cmax RBC): 116 µg/mL | half-life ([2]; red blood cells, red blood cell, read-out: T1/2 RBC (converted)): 11 h | AUC(0-t) ([2]; plasma, read-out: AUC0-24 h Plasma): 10.7 µg·h/mL | Cmax ([2]; plasma, read-out: Cmax Plasma): 0.753 µg/mL | half-life ([2]; plasma, read-out: T1/2 Plasma (converted)): 11 h
SMILES: [2H]C([2H])(Oc1cccc(O)c1C=O)c1cncnc1-c1ccnn1C(C)C [Example 38, 2-hydroxy-6-((4-(1-isopropyl-1H-pyrazol-5-yl)pyrimidin-5-yl)methoxy-d2)benzaldehyde]
